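Method: 48-hour compound exposure of cells in 96-well plates, five concentrations, linear interpolation of endpoints. TGI is the concentration that stops growth completely.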
Tests used:
Experiment in all cases: NCI tumour cell line growth inhibition, 48 h
[1] = tested on: NCI/ADR-RES ovarian
[2] = tested on: SK-MEL-28 melanoma
[3] = tested on: NCI-H522 lung
[4] = tested on: SN12C renal
[5] = tested on: SK-MEL-5 melanoma
[6] = tested on: NCI-H23 lung
[7] = tested on: A549 NSCLC
[8] = tested on: SF-295 CNS
[9] = tested on: SF-268 CNS
[10] = tested on: PC-3 prostate
[11] = tested on: KM12 colon
[12] = tested on: OVCAR-4 ovarian
[13] = tested on: BT-549 breast
[14] = tested on: A498 renal
[15] = tested on: MDA-MB-435
[16] = tested on: NCI-H460 lung
[17] = tested on: DU-145 prostate
[18] = tested on: MALME-3M melanoma
[19] = tested on: CCRF-CEM leukemia
[20] = tested on: 786-0 renal
[21] = tested on: TK-10 renal
[22] = tested on: NCI-H226 lung
[23] = tested on: UO-31 renal
[24] = tested on: SW-620 colon
[25] = tested on: RXF 393 renal
[26] = tested on: U251 CNS
[27] = tested on: HCT-15 colon
[28] = tested on: HOP-92 NSCLC
[29] = tested on: SK-OV-3 ovarian
[30] = tested on: MDA-N
[31] = tested on: OVCAR-8 ovarian
[32] = tested on: SF-539 CNS
[33] = tested on: CAKI-1 renal
[34] = tested on: EKVX NSCLC
[35] = tested on: ACHN renal
[36] = tested on: LOX IMVI melanoma
[37] = tested on: HCT-116 colon
[38] = tested on: IGROV1 ovarian
[39] = tested on: M14 melanoma
[40] = tested on: MCF7 breast
[41] = tested on: SK-MEL-2 melanoma
[42] = tested on: OVCAR-3 ovarian
[43] = tested on: K-562 leukemia
[44] = tested on: OVCAR-5 ovarian
[45] = tested on: HCC-2998 colon
[46] = tested on: HT29 colon
[47] = tested on: UACC-257 melanoma
[48] = tested on: HOP-62 NSCLC
[49] = tested on: HL-60(TB) leukemia
[50] = tested on: MDA-MB-231 breast
[51] = tested on: COLO 205 colon
[52] = tested on: MOLT-4 leukemia
[53] = tested on: SNB-75 CNS
[54] = tested on: SNB-19 CNS
[55] = tested on: RPMI-8226 leukemia
[56] = tested on: HS 578T breast
[57] = tested on: T-47D breast
[58] = tested on: SR leukemia
[59] = tested on: UACC-62 melanoma

Cc1nc2nnc(CCCCCCCCc3nnc4nc(C)[nH]n34)n2[nH]1
TGI [1]: > 100 µM | TGI [2]: > 100 µM | TGI [3]: > 100 µM | TGI [4]: > 100 µM | TGI [5]: > 100 µM | TGI [6]: > 100 µM | TGI [7]: > 100 µM | TGI [8]: > 100 µM | TGI [9]: > 100 µM | TGI [10]: > 100 µM | TGI [11]: > 100 µM | TGI [12]: > 100 µM | TGI [13]: > 100 µM | TGI [14]: > 100 µM | TGI [15]: > 100 µM | TGI [16]: > 100 µM | TGI [17]: > 100 µM | TGI [18]: > 100 µM | TGI [19]: > 100 µM | TGI [20]: > 100 µM | TGI [21]: > 100 µM | TGI [22]: > 100 µM | TGI [23]: > 100 µM | TGI [24]: > 100 µM | TGI [25]: > 100 µM | TGI [26]: > 100 µM | TGI [27]: > 100 µM | TGI [28]: > 100 µM | TGI [29]: > 100 µM | TGI [30]: > 100 µM | TGI [31]: > 100 µM | TGI [32]: > 100 µM | TGI [33]: > 100 µM | TGI [34]: > 100 µM | TGI [35]: > 100 µM | TGI [36]: > 100 µM | TGI [37]: > 100 µM | TGI [38]: > 100 µM | TGI [39]: > 100 µM | TGI [40]: > 100 µM | TGI [41]: > 100 µM | TGI [42]: > 100 µM | TGI [43]: > 100 µM | TGI [44]: > 100 µM | TGI [45]: > 100 µM | TGI [46]: > 100 µM | TGI [47]: > 100 µM | TGI [48]: > 100 µM | TGI [49]: > 100 µM | TGI [50]: > 100 µM | TGI [51]: > 100 µM | TGI [52]: > 100 µM | TGI [53]: > 100 µM | TGI [54]: > 100 µM

CCOC(=O)c1c(NS(=O)(=O)c2ccccc2)sc2c1CCCC2
TGI [1]: > 100 µM | TGI [55]: > 100 µM | TGI [4]: > 100 µM | TGI [5]: > 100 µM | TGI [6]: > 100 µM | TGI [7]: > 100 µM | TGI [8]: > 100 µM | TGI [9]: > 100 µM | TGI [10]: > 100 µM | TGI [11]: > 100 µM | TGI [13]: > 100 µM | TGI [14]: > 100 µM | TGI [16]: > 100 µM | TGI [17]: > 100 µM | TGI [56]: > 100 µM | TGI [19]: > 100 µM | TGI [20]: > 100 µM | TGI [21]: > 100 µM | TGI [57]: > 100 µM | TGI [22]: > 100 µM | TGI [23]: > 100 µM | TGI [58]: > 100 µM | TGI [25]: > 100 µM | TGI [27]: > 100 µM | TGI [30]: > 100 µM | TGI [31]: > 100 µM | TGI [32]: > 100 µM | TGI [33]: > 100 µM | TGI [34]: > 100 µM | TGI [35]: > 100 µM | TGI [37]: > 100 µM | TGI [38]: > 100 µM | TGI [39]: > 100 µM | TGI [40]: > 100 µM | TGI [41]: > 100 µM | TGI [42]: 82.3 µM | TGI [43]: > 100 µM | TGI [44]: > 100 µM | TGI [59]: > 100 µM | TGI [46]: > 100 µM | TGI [47]: > 100 µM | TGI [48]: > 100 µM | TGI [49]: > 100 µM | TGI [50]: > 100 µM | TGI [51]: > 100 µM | TGI [52]: > 100 µM | TGI [53]: > 100 µM | TGI [54]: > 100 µM

O=C(Cn1c(=O)oc2ccccc21)N(c1ccccc1)c1ccccc1
TGI [1]: > 100 µM | TGI [2]: > 100 µM | TGI [55]: > 100 µM | TGI [4]: > 100 µM | TGI [5]: > 100 µM | TGI [6]: > 100 µM | TGI [8]: > 100 µM | TGI [9]: > 100 µM | TGI [10]: > 100 µM | TGI [11]: > 100 µM | TGI [13]: > 100 µM | TGI [14]: > 100 µM | TGI [15]: > 100 µM | TGI [16]: > 100 µM | TGI [17]: > 100 µM | TGI [56]: > 100 µM | TGI [18]: > 100 µM | TGI [19]: > 100 µM | TGI [20]: > 100 µM | TGI [21]: > 100 µM | TGI [22]: > 100 µM | TGI [23]: > 100 µM | TGI [58]: > 100 µM | TGI [24]: > 100 µM | TGI [25]: > 100 µM | TGI [26]: > 100 µM | TGI [27]: > 100 µM | TGI [29]: > 100 µM | TGI [30]: > 100 µM | TGI [31]: > 100 µM | TGI [32]: > 100 µM | TGI [33]: > 100 µM | TGI [34]: > 100 µM | TGI [35]: > 100 µM | TGI [36]: > 100 µM | TGI [37]: > 100 µM | TGI [38]: > 100 µM | TGI [39]: > 100 µM | TGI [40]: > 100 µM | TGI [41]: > 100 µM | TGI [42]: > 100 µM | TGI [43]: > 100 µM | TGI [44]: > 100 µM | TGI [59]: > 100 µM | TGI [46]: > 100 µM | TGI [47]: > 100 µM | TGI [48]: > 100 µM | TGI [49]: > 100 µM | TGI [50]: > 100 µM | TGI [51]: > 100 µM | TGI [52]: > 100 µM | TGI [53]: 71 µM | TGI [54]: > 100 µM

O=[N+]([O-])C(/C=C(\Cl)[N+](=O)[O-])=C(N1CCOCC1)N1CCOCC1
TGI [1]: > 100 µM | TGI [2]: > 100 µM | TGI [55]: 54.6 µM | TGI [3]: > 100 µM | TGI [4]: > 100 µM | TGI [5]: > 100 µM | TGI [6]: > 100 µM | TGI [7]: 39.3 µM | TGI [8]: > 100 µM | TGI [9]: > 100 µM | TGI [10]: > 100 µM | TGI [11]: > 100 µM | TGI [12]: 53.9 µM | TGI [14]: 51.5 µM | TGI [15]: > 100 µM | TGI [16]: > 100 µM | TGI [17]: > 100 µM | TGI [56]: > 100 µM | TGI [18]: 70.3 µM | TGI [19]: > 100 µM | TGI [20]: 30.7 µM | TGI [21]: > 100 µM | TGI [57]: 52.7 µM | TGI [22]: > 100 µM | TGI [23]: 54 µM | TGI [58]: > 100 µM | TGI [25]: > 100 µM | TGI [26]: 46.7 µM | TGI [27]: > 100 µM | TGI [28]: 76.4 µM | TGI [29]: > 100 µM | TGI [30]: > 100 µM | TGI [31]: > 100 µM | TGI [32]: 39.9 µM | TGI [33]: 61 µM | TGI [34]: > 100 µM | TGI [35]: > 100 µM | TGI [36]: > 100 µM | TGI [37]: 62 µM | TGI [38]: > 100 µM | TGI [39]: > 100 µM | TGI [40]: 35.3 µM | TGI [41]: > 100 µM | TGI [42]: 34.4 µM | TGI [43]: 37.6 µM | TGI [44]: 57.2 µM | TGI [45]: 43 µM | TGI [59]: > 100 µM | TGI [46]: 83.1 µM | TGI [47]: > 100 µM | TGI [48]: 37.7 µM | TGI [49]: 36.8 µM | TGI [50]: 43.7 µM | TGI [51]: 33.9 µM | TGI [52]: > 100 µM | TGI [53]: > 100 µM | TGI [54]: > 100 µM

From PubChem BioAssay (NCI)
